Reference: ChEMBL document CHEMBL6115028, “An Amazing 30-Year Journey around the DABO Family: A Medicinal Chemistry Lesson on a Versatile Class of Non-nucleoside HIV-1 Reverse Transcriptase Inhibitors” (J Med Chem, 2025)
Blank lines part the entries; values can stand above or below the compound they belong to.

Experiments:
[1] = tested on: MT4; assay: Cytotoxicity against human MT4 cells; format: functional
[2] = tested on: Human immunodeficiency virus 1; assay: Antiviral activity against wild type HIV-1 IIIB infected in human MT4 cells assessed as protection against virus-induced cytopathic effect incubated for 72 hrs by MTT assay; format: functional, organism-based; details: Human immunodeficiency virus 1, IIIB, MT4, 72 h
[3] = tested on: Human immunodeficiency virus 1; assay: Antiviral activity against HIV-1 infected in human MT4 cells assessed as reduction in virus-induced cytopathic effect incubated for 5 days by Cell Titer-Glo luminescent assay; format: functional, organism-based; details: Human immunodeficiency virus 1, MT4, 120 h
[4] = tested on: MT4; assay: Cytotoxicity against human MT4 cells assessed as reduction in cell viability after 5 days by MTT assay; format: functional; details: MT4, 120 h, time 5 day
[5] = Selectivity index, ratio of CC50 for human MT4 cells to EC50 for antiviral activity against HIV1 infected in human MT4 cells; format: toxicity, cell-based; details: read-out: Ratio CC50/EC50
[6] = biological target: T1, Human immunodeficiency virus type 1 reverse transcriptase (Human immunodeficiency virus 1, UniProt Q72547); assay: Inhibition of recombinant HIV-1 reverse transcriptase associated RNA-dependent DNA polymerase activity incubated for 30 mins by liquid scintillation method
[7] = tested on: MT4; assay: Cytotoxicity against human MT4 cells assessed as reduction in cell viability incubated for 4 days by MTT assay; format: functional; details: MT4, 96 h, time 4 day
[8] = tested on: Human immunodeficiency virus 1; assay: Antiviral activity against wild type HIV-1 IIIB infected in human MT4 cells assessed as reduction in cytopathic effect measured after 4 days by MTT assay; format: functional, organism-based; details: Human immunodeficiency virus 1, IIIB, MT4, 96 h
[9] = tested on: Human immunodeficiency virus 1; assay: Antiviral activity against […] infected in human MT4 cells assessed as reduction in cytopathic effect measured after 4 days by MTT assay; format: functional, organism-based; details: Human immunodeficiency virus 1, IIIB, MT4, 96 h
[10] = tested on: Human immunodeficiency virus 1; assay: Antiviral activity against wild type HIV-1 IIIB harboring Y181C/K103N double mutant infected in human MT4 cells assessed as reduction in cytopathic effect measured after 4 days by MTT assay; format: functional, organism-based; details: Human immunodeficiency virus 1, IIIB, MT4, 96 h
[11] = tested on: Human immunodeficiency virus 1; assay: Antiviral activity against wild type HIV-1 NL4-3 infected in human MT4 cells assessed as reduction in viral replication measured for 72 hrs by ELISA analysis; format: functional, organism-based; details: Human immunodeficiency virus 1, NL4-3, MT4, 72 h
[12] = tested on: Human immunodeficiency virus 1; assay: Antiviral activity against HIV-1 NL4-3 harboring infected Y181C mutant infected in human MT4 cells assessed as reduction in viral replication; format: functional, organism-based; details: Human immunodeficiency virus 1, NL4-3, MT4
[13] = tested on: Human immunodeficiency virus 1; assay: Antiviral activity against HIV-1 NL4-3 harboring infected K103N mutant infected in human MT4 cells assessed as reduction in viral replication; format: functional, organism-based; details: Human immunodeficiency virus 1, NL4-3, MT4
[14] = tested on: Human immunodeficiency virus 1; assay: Antiviral activity against HIV-1 NL4-3 harboring infected Y188L mutant infected in human MT4 cells assessed as reduction in viral replication; format: functional, organism-based; details: Human immunodeficiency virus 1, NL4-3, MT4
[15] = tested on: MT2; assay: Cytotoxicity against human MT2 cells; format: functional
[16] = tested on: Human immunodeficiency virus 1; assay: Antiviral activity against HIV-1 3B infected in human MT4 cells assessed as reduction in viral replication incubated for 5 days by MTT assay; format: functional, organism-based; details: Human immunodeficiency virus 1, 3B, MT4, 120 h
[17] = tested on: MT4; assay: Cytotoxicity against human MT4 cells assessed as reduction in cell growth incubated for 5 days by MTT assay; format: functional; details: MT4, 120 h, time 5 day
[18] = tested on: Human immunodeficiency virus 1; assay: Antiviral activity against HIV-1 harboring RT K103N mutant infected in human MT4 cells assessed as protection against virus-induced cytopathic effect measured for 5 days by MTT assay; format: functional, organism-based; details: Human immunodeficiency virus 1, MT4, 120 h
[19] = tested on: Human immunodeficiency virus 1; assay: Antiviral activity against HIV-1 infected in human MT4 cells; format: functional, organism-based; details: Human immunodeficiency virus 1, MT4
[20] = tested on: Human immunodeficiency virus 1; assay: Antiviral activity against wild type HIV-1 NL4-3 infected in human MT4 cells assessed as reduction in viral replication; format: functional, organism-based; details: Human immunodeficiency virus 1, NL4-3, MT4; read-out: EC50
[21] = biological target: T2, Reverse transcriptase (Human immunodeficiency virus 1, UniProt Q9WKE8, K103N); assay: Inhibition of HIV-1 Reverse transcriptase K103N mutant
[22] = biological target: T1, Human immunodeficiency virus type 1 reverse transcriptase; assay: Inhibition of wild type HIV-1 Reverse transcriptase
[23] = biological target: T2, Reverse transcriptase; assay: Binding affinity to HIV-1 reverse transcriptase K103N mutant assessed as inhibition constant

Compound: Cc1cc(C)cc(Cc2nc(Sc3cccnc3)[nH]c(=O)c2C)c1
CC50 [1]: 55 µM
EC50 [2]: 1.6 µM

IC50 [6]: 28 µM
Compound: CCC(C)Oc1nc(Sc2ccccc2)nc(N)c1C (configuration not stated)
EC50 [3]: 8 µM
CC50 [4]: > 364 µM
selectivity ratio [5]: > 45

Compound: C=C(c1nc(N(C)C)[nH]c(=O)c1C)c1c(F)cccc1F
CC50 [7]: > 100 µM
EC50 [8]: 0.2 µM
EC50 [9]: 44 µM
EC50 [10]: > 100 µM

Compound: CSc1nc(N)c(C)c(C(=O)c2ccc(F)cc2)n1
EC50 [11]: 0.58 µM
EC50 [12]: 0.21 µM
EC50 [13]: 5.95 µM
EC50 [14]: 0.21 µM

Compound: CSc1nc(C(C)C)c(CC2CCCCC2)n1COCc1ccccc1
CC50 [15]: 31 µM

Compound: Cc1c(C(Br)c2c(F)cccc2F)nc(N(C)C)[nH]c1=O (configuration not stated)
CC50 [7]: 43 µM
EC50 [8]: 0.2 µM
EC50 [9]: 43 µM
EC50 [10]: 43 µM

Compound: CCC(C)Sc1nc(Cc2cc(C)cc(C)c2)c(C)c(=O)[nH]1 (configuration not stated)
EC50 [16]: 0.6 µM
CC50 [17]: 86 µM

Compound: O=C1c2ccccc2C(=O)N1CCSc1nc(Cc2c(F)cccc2F)cc(=O)[nH]1
EC50 [18]: 100 µM
CC50 [1]: > 100 µM

Compound: Cc1c(C2(c3c(F)cccc3F)CC2)nc(SC2CCCC2)[nH]c1=O
selectivity ratio [5]: 2660
CC50 [1]: 14 µM
EC50 [19]: 0.005 µM

Compound: Cc1cc(=O)[nH]c(SCCN2C(=O)c3ccccc3C2=O)n1
EC50 [18]: 1.9 µM
CC50 [1]: 117 µM

Compound: CCc1nc(SC)n(COCc2ccccc2)c1CC1CCCCC1
CC50 [15]: 25 µM

Compound: CCC(C)Sc1nc(Cc2cc(C)cc(C)c2)c(I)c(=O)[nH]1 (configuration not stated)
EC50 [16]: 4.3 µM
CC50 [17]: 144 µM

Compound: CCC(C)Oc1nc(Cc2cc(C)cc(C)c2)c(C)c(=O)[nH]1 (configuration not stated)
EC50 [3]: 0.8 µM
CC50 [4]: > 333 µM
selectivity ratio [5]: > 416
IC50 [6]: 2 µM

Compound: Cc1c(C(F)c2c(F)cccc2F)nc(N(C)C)[nH]c1=O (configuration not stated)
CC50 [7]: > 100 µM
EC50 [8]: 0.02 µM
EC50 [9]: 2.8 µM
EC50 [10]: > 100 µM

Compound: CCOCn1c(SC)nc(C(C)C)c1CC1CCCCC1
CC50 [15]: 39 µM

Compound: CSc1nc(C(C)C)c(Cc2ccccc2)n1COCc1ccccc1
CC50 [15]: 29 µM

Compound: COc1ccc(C2CC2CN(C)c2nc(C(C)c3c(F)cccc3F)cc(=O)[nH]2)cc1 (configuration not stated)
EC50 [20]: 0.003 µM
IC50 [21]: 0.985 µM
EC50 [12]: > 5 µM
EC50 [13]: 0.07 µM
EC50 [14]: 2.95 µM

Compound: Cc1cc(C)cc(Cc2nc(Sc3cccc4ccccc34)[nH]c(=O)c2C)c1
CC50 [1]: > 100 µM
EC50 [2]: 1.6 µM

Compound: Cc1cccc(Cc2cc(=O)[nH]c(OC3CCCCC3)n2)c1
EC50 [3]: 0.8 µM
CC50 [4]: > 335 µM
selectivity ratio [5]: > 418
IC50 [6]: 1.8 µM

Compound: CCCSc1nc(C2(c3c(F)cccc3F)CC2)c(C)c(=O)[nH]1
selectivity ratio [5]: 3000
CC50 [1]: 12 µM
EC50 [19]: 0.004 µM

Compound: COc1ccc(Cn2cc(CSc3nc(Cc4c(Cl)cccc4Cl)c(C)c(=O)[nH]3)nn2)cc1
CC50 [1]: 29 µM
IC50 [22]: 4.56 µM

Compound: CC(c1cc(=O)[nH]c(N(C)C)n1)c1c(F)cccc1Cl (configuration not stated)
EC50 [11]: 0.007 µM
Ki [23]: 1 µM

Compound: Cc1c(C(O)c2c(F)cccc2F)nc(N(C)C)[nH]c1=O (configuration not stated)
CC50 [7]: 50 µM
EC50 [8]: 1 µM
EC50 [9]: > 50 µM
EC50 [10]: > 50 µM

Compound: Cc1c(C(=O)c2c(F)cccc2F)nc(N(C)C)[nH]c1=O
CC50 [7]: > 100 µM
EC50 [8]: 0.3 µM
EC50 [9]: 94 µM
EC50 [10]: > 100 µM
